Legend:
[1] = Human microsome stability assay; format: in vitro ADME; details: human liver microsomes, 1 μM test compound, 0.5 mg/mL microsomal protein, 37° C., pH 7.4, 0-30 minutes
Method in brief: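 Parent compound remaining was measured by LC-MS/MS at 0, 3, 6, 9, 15 and 30 min, following ACN quench. Reactions held 1 μM compound and 0.5 mg/mL human liver microsomal protein in pH 7.4 phosphate buffer at 37 °C, started by NADPH regeneration (1 mM NADP, 1 mM MgCl2); controls lacked NADPH.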

[2] = test system: HBeAg (surrogate marker for cccDNA) in HepDES19 cells; test: Engineered HepDES19 primary screen assay (HBeAg ELISA); format: cell-based, HBV; details: Hepatitis B virus, HepDES19, 120 h, read-out: IC50 (HBeAg level, HepDES19 primary screen assay), HepDES19 cells, 5 days compound incubation, HBeAg ELISA
Method in brief: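 IC50 values come from 4-parameter logistic fits of HBeAg ELISA signal, the cccDNA surrogate, with CCK-8 run in parallel for viability. Compounds at half-log dilutions with 1% DMSO were applied for 5 days at 37 °C to HepDES19 cells previously cultured 8 days without Tet.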

[3] = test system: HBsAg in HBV-infected PHH; test: Cryopreserved primary human hepatocytes (PHH) HBV infection assay, extracellular HBsAg (CLIA); format: cell-based; details: Hepatitis B virus, Hepatocyte, 216 h, read-out: HBsAg IC50, Cryopreserved PHH infected with HBV, 9 days post-compound treatment, extracellular HBsAg
Method in brief: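 Cryopreserved PHH were infected with 5.8×10^6 HBV genome equivalents in medium with 4% PEG8000 and 1% DMSO. After 9 days of treatment, extracellular HBsAg was measured by CLIA, and IC50 was derived from a 4-parameter logistic fit.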

| Compound | Clearance of Human microsome [1] [mL/min/kg] | IC50 [2] [nM] | IC50 [3] [µM] |
| --- | --- | --- | --- |
| O=C(O)[C@@H]1C[C@H](Oc2cc(Br)ccc2-c2cc(=O)c3cccc(Cl)c3o2)CN1S(=O)(=O)C1CC1 [Example B083, (2S,4S)-4-[5-bromo-2-(8-chloro-4-oxo-chromen-2-yl)phenoxy]-1-cyclopropylsulfonyl-pyrrolidine-2-carboxylic acid] | 6.15 | 704 | 3.24 |
| Cc1ccc(-c2cc(=O)c3cccc(Cl)c3o2)c(OCCCOCC(=O)O)c1 [Example C002, 2-[3-[2-(8-chloro-4-oxo-chromen-2-yl)-5-methyl-phenoxy]propoxy]acetic acid] | 6.15 | 348 | 2.43 |
| O=C(O)COCCOc1cc(Br)ccc1-c1cc(=O)c2cccc(Cl)c2o1 [Example C006, 2-[2-[5-bromo-2-(8-chloro-4-oxo-chromen-2-yl)phenoxy]ethoxy]acetic acid] | 6.15 | 1260 | 3.74 |
| Cc1cc(-c2cc(=O)c3cccc(Cl)c3o2)c(OCCCOCC(=O)O)cc1Br [Example C011, 2-[3-[5-bromo-2-(8-chloro-4-oxo-chromen-2-yl)-4-methyl-phenoxy]propoxy]acetic acid] | 6.15 | 10600 | 8.5 |
| COc1cc(-c2cc(=O)c3cccc(Cl)c3o2)c(OCCCOCC(=O)O)cc1Br [Example C013, 2-[3-[5-bromo-2-(8-chloro-4-oxo-chromen-2-yl)-4-methoxy-phenoxy]propoxy]acetic acid] | 6.15 | 252 | 9.32 |
| O=C(O)COCCCOc1cc(OC(F)(F)F)ccc1-c1cc(=O)c2cccc(Cl)c2o1 [Example C014, 2-[3-[2-(8-chloro-4-oxo-chromen-2-yl)-5-(trifluoromethoxy)phenoxy]propoxy]acetic acid] | 8.04 | 2190 | 7.8 |
| O=C(O)COCCCOc1cc2c(cc1-c1cc(=O)c3cccc(Cl)c3o1)OCO2 [Example C015, 2-[3-[[6-(8-chloro-4-oxo-chromen-2-yl)-1,3-benzodioxo1-5-yl]oxy]propoxy]acetic acid] | 6.15 | 7870 | 3.36 |
| COc1cc(-c2cc(=O)c3cccc(Cl)c3o2)c(OCCCOCC(=O)O)cc1Cl [Example C016, 2-[3-[5-chloro-2-(8-chloro-4-oxo-chromen-2-yl)-4-methoxy-phenoxy]propoxy]acetic acid] | 6.15 | 2460 | 7.14 |
| Cc1ccc(-c2cc(=O)c3cccc(Br)c3o2)c(OCCCOCC(=O)O)c1 [Example C017, 2-[3-[2-(8-bromo-4-oxo-chromen-2-yl)-5-methyl-phenoxy]propoxy]acetic acid] | 6.15 | 492 | 2.94 |
| Cc1cc(-c2cc(=O)c3cccc(Cl)c3o2)c(OCCCOCC(=O)O)cc1Cl [Example C019, 2-[3-[5-chloro-2-(8-chloro-4-oxo-chromen-2-yl)-4-methyl-phenoxy]propoxy]acetic acid] | 6.71 | 185 | 3 |
| O=c1cc(-c2ccccc2OCCO[C@H]2C[C@@H](C(=O)O)C2)oc2c(Cl)cccc12 [Example C025-A, Cis-3-[2-[2-(8-chloro-4-oxo-chromen-2-yl)phenoxy]ethoxy]cyclobutanecarboxylic acid] | 6.15 | 191 | 2.58 |
| O=c1cc(-c2ccccc2OCCO[C@H]2C[C@H](C(=O)O)C2)oc2c(Cl)cccc12 [Example C025-B, Trans-3-[2-[2-(8-chloro-4-oxo-chromen-2-yl)phenoxy]ethoxy]cyclobutanecarboxylic acid] | 6.15 | 205 | 2.02 |
| O=c1cc(-c2ccc(C(F)(F)F)cc2OCCO[C@H]2C[C@@H](C(=O)O)C2)oc2c(Cl)cccc12 [Example C026, Cis-3-[2-[2-(8-chloro-4-oxo-chromen-2-yl)-5-(trifluoromethyl)phenoxy]ethoxy]cyclobutanecarboxylic acid] | 6.81 | 526 | 8.95 |
| O=c1cc(-c2cc(F)ccc2OCCO[C@H]2C[C@@H](C(=O)O)C2)oc2c(Cl)cccc12 [Example C033-A, Cis-3-[2-[2-(8-chloro-4-oxo-chromen-2-yl)-4-fluoro-phenoxy]ethoxy]cyclobutanecarboxylic acid] | 6.15 | 1340 | 1.97 |
| O=c1cc(-c2cc(F)ccc2OCCO[C@H]2C[C@H](C(=O)O)C2)oc2c(Cl)cccc12 [Example C033-B, Trans-3-[2-[2-(8-chloro-4-oxo-chromen-2-yl)-4-fluoro-phenoxy]ethoxy]cyclobutanecarboxylic acid] | 6.15 | 927 | 4.33 |
| O=c1cc(-c2ccc(F)cc2OCCO[C@H]2C[C@@H](C(=O)O)C2)oc2c(Cl)cccc12 [Example C034-A, Cis-3-[2-[2-(8-chloro-4-oxo-chromen-2-yl)-5-fluoro-phenoxy]ethoxy]cyclobutanecarboxylic acid] | 6.15 | 526 | 4.69 |
| O=c1cc(-c2ccc(F)cc2OCCO[C@H]2C[C@H](C(=O)O)C2)oc2c(Cl)cccc12 [Example C034-B, Trans-3-[2-[2-(8-chloro-4-oxo-chromen-2-yl)-5-fluoro-phenoxy]ethoxy]cyclobutanecarboxylic acid] | 6.75 | 1810 | 9.11 |
| O=c1cc(-c2ccccc2OCCO[C@H]2C[C@@H](C(=O)O)C2)oc2c(Cl)cc(F)cc12 [Example C036-A, Cis-3-[2-[2-(8-chloro-6-fluoro-4-oxo-chromen-2-yl)phenoxy]ethoxy]cyclobutanecarboxylic acid] | 6.15 | 261 | 2.42 |
| O=c1cc(-c2ccccc2OCCO[C@H]2C[C@H](C(=O)O)C2)oc2c(Cl)cc(F)cc12 [Example C036-B, Trans-3-[2-[2-(8-chloro-6-fluoro-4-oxo-chromen-2-yl)phenoxy]ethoxy]cyclobutanecarboxylic acid] | 6.15 | 770 | 5.58 |
| Cc1ccc(-c2cc(=O)c3cccc(Cl)c3o2)c(OCCO[C@H]2C[C@@H](C(=O)O)C2)c1 [Example C038-A, Cis-3-[2-[2-(8-chloro-4-oxo-chromen-2-yl)-5-methyl-phenoxy]ethoxy]cyclobutanecarboxylic acid] | 6.15 | 643 | 8.61 |
| O=c1cc(-c2cc(C(F)(F)F)c(Br)cc2OCCO[C@H]2C[C@H](C(=O)O)C2)oc2c(Cl)cccc12 [Example C042-B] | 6.15 | 15300 | 8.96 |
| O=c1cc(-c2cc3c(cc2OCCO[C@H]2C[C@@H](C(=O)O)C2)OCO3)oc2c(Cl)cccc12 [Example C043-A, Cis-3-[2-[[6-(8-chloro-4-oxo-chromen-2-yl)-1,3-benzodioxo1-5-yl]oxy]ethoxy]cyclobutanecarboxylic acid] | 6.15 | 2680 | 8.67 |
| O=c1cc(-c2cc3c(cc2OCCO[C@H]2C[C@H](C(=O)O)C2)OCO3)oc2c(Cl)cccc12 [Example C043-B, Trans-3-[2-[[6-(8-chloro-4-oxo-chromen-2-yl)-1,3-benzodioxo1-5-yl]oxy]ethoxy]cyclobutanecarboxylic acid] | 7.72 | 9420 | 5.2 |
| O=c1cc(-c2cc(F)c(Br)cc2OCCO[C@H]2C[C@@H](C(=O)O)C2)oc2c(Cl)cccc12 [Example C044-A, Cis-3-[2-[5-bromo-2-(8-chloro-4-oxo-chromen-2-yl)-4-fluoro-phenoxy]ethoxy]cyclobutanecarboxylic acid] | 6.15 | 2010 | 9.58 |
| O=C1CCCN1c1ccc(-c2cc(=O)c3cccc(Cl)c3o2)c(OCCO[C@H]2C[C@@H](C(=O)O)C2)c1 [Example C063-A, Cis-3-[2-[2-(8-chloro-4-oxo-chromen-2-yl)-5-(2-oxopyrrolidin-1-yl)phenoxy]ethoxy]cyclobutanecarboxylic acid] | 9.09 | 4950 | 6.61 |
| COc1cc(-c2cc(=O)c3cccc(Cl)c3o2)c(OCCO[C@H]2C[C@@H](C(=O)O)C2)cc1Br [Example C073, Cis-3-[2-[5-bromo-2-(8-chloro-4-oxo-chromen-2-yl)-4-methoxy-phenoxy]ethoxy]cyclobutanecarboxylic acid] | 7.85 | 920 | 7.56 |

Source: US11708344B2, “Flavone derivatives for the treatment and prophylaxis of hepatitis B virus disease” (Hoffmann-La Roche Inc., priority 2018, dated 2023)
